{
  "source": "patent US8969572B2",
  "about": "“Process for preparing tetrazole-substituted anthranilamide derivatives and novel crystal polymorphs of these derivatives” (Bayer Cropscience AG, priority 2010, dated 2015)",
  "key": {"[1]": {"settings": "cited from earlier work"}, "[2]": {"assay": "thermodynamic stability of the crystal polymorph", "format": "physicochemical", "description": "The compound of the formula (I-1) is known from WO2010/069502. To date, only one crystal form of the compound 1-(3-chloropyridin-2-yl)-N-[4-cyano-2-methyl-6-(methylcarbamoyl)phenyl]-3-{[5-(trifluoromethyl)-2H-tetrazol-2-yl]methyl}-1H-pyrazole-5-carboxamide of the formula (I-1) was known, which is referred to hereinafter as polymorph A. Polymorph A has a characteristic x-ray powder diffractogram, Raman spectrum and IR spectrum (Tab. 1-2, FIGS. 2, 3, 5)."}},
  "data": [
    {"compound": "FC(F)(F)c1nnn[nH]1", "note": "[5-Trifluoromethyltetrazole]", "values": [
      {"measurement": "pKa", "setting": "[1]", "result": 1.14}
    ]},
    {"compound": "CNC(=O)c1cc(C#N)cc(C)c1NC(=O)c1cc(Cn2nnc(C(F)(F)F)n2)nn1-c1ncccc1Cl", "note": "[Polymorph A, 1-(3-chloropyridin-2-yl)-N-[4-cyano-2-methyl-6-(methylcarbamoyl)phenyl]-3-{[5-(trifluoromethyl)-2H-tetrazol-2-yl]methyl}-1H-pyrazole-5-carboxamide]", "values": [
      {"measurement": "thermodynamic stability of crystal polymorph", "setting": "[2]", "result": "thermodynamically metastable"}
    ]}
  ]
}
